Reference: US20240025880A1 (CHIESI FARMACEUTICI S.P.A., priority 2020, published 2024)
Structures can show the parent of a compound that is named as a salt. Where two headings read alike, the source gives them in different places.

Key:
[1] = molecular target: T1, h P2X3 (Homo sapiens, UniProt P56373); test: In vitro electrophysiology assay for P2X3 (automated whole-cell patch clamp, α,β-MeATP agonist); type: cell-based; settings: 800 nM α,β-MeATP, peak current, read-out: h P2X3 (pIC50 range of activity) (converted)
T1 sequence (P56373 1-397): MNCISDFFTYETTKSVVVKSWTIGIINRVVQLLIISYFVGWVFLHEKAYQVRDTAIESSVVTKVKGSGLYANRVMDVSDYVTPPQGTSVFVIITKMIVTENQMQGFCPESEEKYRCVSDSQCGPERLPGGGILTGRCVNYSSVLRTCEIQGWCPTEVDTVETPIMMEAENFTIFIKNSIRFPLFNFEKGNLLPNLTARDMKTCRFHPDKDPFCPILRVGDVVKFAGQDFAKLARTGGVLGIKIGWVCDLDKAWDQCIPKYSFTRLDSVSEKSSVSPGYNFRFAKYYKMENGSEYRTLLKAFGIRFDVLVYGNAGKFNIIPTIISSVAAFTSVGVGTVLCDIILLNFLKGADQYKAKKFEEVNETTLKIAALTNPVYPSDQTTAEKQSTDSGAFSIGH
Experimental: In Vitro Electrophysiology Assay for P2X3
(§1) Cells expressing P2X3 receptors were grown according to standard practice and maintained at 37° C. in a 5% humidified CO2 atmosphere. The cells were seeded into T175 flask 2 days prior to the day of the assay and dissociated from the flasks using TrypLE when grown to confluence of 80-90%. The dissociated cells were resuspended in serum free media at a cell density of 3×10^6 cells/ml and loaded onto the Sophion Qube automated patch-clamp system. The extracellular assay buffer contained 145 mM NaCl, 4 mM KCl, 2 mM CaCl2, 1 mM MgCl2, 10 mM HEPES, and 10 mM glucose at pH 7.4. The intracellular assay solution contained 140 mM CsF, 10 mM NaCl, 10 mM EGTA, 10 mM HEPES at pH 7.2. Agonist stock solutions were prepared in H2O and diluted in bath solution prior to use. All antagonists were prepared as 10 mM stock solutions in DMSO and diluted in bath solution prior to use. All experiments were performed under the whole-cell patch clamp configuration at room temperature with 384 individual cells being voltage clamped at −60 mV simultaneously on the Sophion Qube instrument. Two baseline responses were established with the application of α,β-MeATP (800 nM), with the subsequent agonist applications being washed out using extracellular assay buffer containing 0.5 U/ml apyrase. Following the second agonist application, antagonist was incubated in the absence of α,β-MeATP for 10 minutes. After antagonist preincubation, 800 nM α,β-MeATP and antagonist were co-administered to determine the inhibitory effect of the antagonist. One concentration of an antagonist was assessed against a single cell, with different concentrations of the antagonist applied to other cells on the 384 recording substrate. The control P2X3 current amplitude was taken from the peak current amplitude from the second agonist response prior to preincubation with antagonist. The peak P2X3 current amplitude in the presence of antagonist was used to calculate the inhibitory effect at each concentration of the antagonist according to the following equation:
Percentage inhibition of P2X3=(P2X3 control peak amplitude−P2X3 antagonist peak amplitude)/P2X3 control peak amplitude)*100
Concentration-response curves were constructed from ten different concentrations with each concentration of antagonist tested on at least two individual cells. The concentration of the antagonist to inhibit P2X3 current by 50% (IC50) was determined by fitting the data with the following equation:
Y=a+[(b−a)/(1+10^((log c−x)d)]
Where ‘a’ is minimum response, ‘b’ is maximum response, ‘c’ is IC50 and ‘d’ is Hill slope.

[2] = molecular target: T2, h P2X2/3 (Homo sapiens, UniProt P56373+Q9UBL9); test: In vitro electrophysiology assay for P2X2/3 (same protocol, 10 μM ATP agonist); type: cell-based; settings: Table 3, mean current seven seconds after agonist, read-out: h P2X2/3 (pIC50 range of activity) (converted)
T2 construct: host or cells: cells not described; same protocol as the P2X3 assay
T2 sequence (P56373 1-397): T1 sequence (P56373 1-397)
T2 sequence (Q9UBL9 1-471): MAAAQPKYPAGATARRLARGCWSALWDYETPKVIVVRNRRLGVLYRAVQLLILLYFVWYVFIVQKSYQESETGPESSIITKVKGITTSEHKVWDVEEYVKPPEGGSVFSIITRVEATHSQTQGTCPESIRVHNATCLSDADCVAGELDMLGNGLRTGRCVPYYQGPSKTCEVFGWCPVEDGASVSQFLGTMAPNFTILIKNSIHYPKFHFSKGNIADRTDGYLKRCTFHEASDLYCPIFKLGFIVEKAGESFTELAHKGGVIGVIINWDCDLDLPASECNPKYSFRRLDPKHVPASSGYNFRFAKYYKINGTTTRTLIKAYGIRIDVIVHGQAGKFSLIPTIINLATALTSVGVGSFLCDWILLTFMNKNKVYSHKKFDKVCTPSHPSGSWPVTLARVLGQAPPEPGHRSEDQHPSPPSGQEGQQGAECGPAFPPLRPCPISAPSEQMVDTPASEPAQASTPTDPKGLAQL
Experimental: as §1, with “equation: […]” for “equation:”
In vitro Electrophysiology Assay for P2X2/3
Representative compound of the present invention have been also tested for P2X2/3 receptor.
The same assay protocol was used for the P2X2/3 assay as the P2X3 assay with two modifications: 1) 10 μM ATP was used as the agonist; and 2) the mean current amplitude was measured seven seconds after the application of agonist.

Row | SMILES | IC50 ([1]; Table 2) [nM] | IC50 ([1]; Table 3) [nM] | IC50 [2] [nM]
1 | Cc1nc([C@@H](C)Nc2ncnc3c(S(=O)(=O)N(C)C)cc(-c4ccc(F)cc4)cc23)no1 (stereo in doubt) [Example 15, 6-(4-fluorophenyl)-N,N-dimethyl-4-((1-(5-methyl-1,2,4-oxadiazol-3-yl)ethyl)amino)quinazoline-8-sulfonamide] | < 316 | < 316 | 316 to 3160
2 | COC(=O)C1(NC(=O)COc2cc(-c3ccc(F)cc3)cc3c(NCc4ccc(C)nn4)ncnc23)CC1 [Example 42, Methyl 1-(2-((6-(4-fluorophenyl)-4-(((6-methylpyridazin-3-yl)methyl)amino)quinazolin-8-yl)oxy)acetamido)cyclopropane-1-carboxylate] | 316 to 3160 | 316 to 3160 | 3160 to 31600
3 | Cc1cnc(-c2cc(OCC(F)F)c3ncnc(NCc4ccc(C)nn4)c3c2)nc1 [Example 9, 8-(2,2-difluoroethoxy)-N-[(6-methylpyridazin-3-yl)methyl]-6-(5-methylpyrimidin-2-yl)quinazolin-4-amine] | < 316 | < 316 | 316 to 3160
4 | Cc1ccc([C@@H](C)Nc2ncnc3c(S(=O)(=O)N4CCC(F)(F)C4)cc(-c4ccc(F)cc4)cc23)nn1 [Example 16] | < 316 | < 316 | 316 to 3160
5 | Cc1ccc([C@@H](C)Nc2ncnc3c([S+](C)[O-])cc(-c4ccc(F)cc4)cc23)nn1 (stereo partly drawn) [Example 27, 6-(4-fluorophenyl)-N-((R)-1-(6-methylpyridazin-3-yl)ethyl)-8-(methylsulfinyl)quinazolin-4-amine] | < 316 | < 316 | 316 to 3160
6 | Cc1ccc(CNc2ncnc3c(OCC(F)F)cc(-c4ccc(F)cc4)cc23)nn1 [Example 1, 8-(2,2-difluoroethoxy)-6-(4-fluorophenyl)-N-((6-methylpyridazin-3-yl)methyl)quinazolin-4-amine] | < 316 | < 316 | 3160 to 31600
7 | CNS(=O)(=O)c1cc(-c2ccc(F)cc2)cc2c(N[C@H](C)c3noc(C)n3)ncnc12 [Example 22, (R)-6-(4-fluorophenyl)-N-methyl-4-((1-(5-methyl-1,2,4-oxadiazol-3-yl)ethyl)amino)quinazoline-8-sulfonamide] | < 316 | < 316 | 3160 to 31600
8 | Cc1nc([C@@H](C)Nc2ncnc3c(S(=O)(=O)N4CCC(F)(F)C4)cc(-c4ccc(F)cc4)cc23)no1 [Example 17, (R)-8-((3,3-difluoropyrrolidin-1-yl)sulfonyl)-6-(4-fluorophenyl)-N-(1-(5-methyl-1,2,4-oxadiazol-3-yl)ethyl)quinazolin-4-amine] | < 316 | < 316 | 316 to 3160
9 | CNS(=O)(=O)c1cc(-c2ccc(F)cc2)cc2c(N[C@H](C)c3ccc(C)nn3)ncnc12 [Example 21, (R)-6-(4-fluorophenyl)-N-methyl-4-((1-(6-methylpyridazin-3-yl)ethyl)amino)quinazoline-8-sulfonamide] | < 316 | < 316 | 3160 to 31600
10 | C[C@@H](Nc1ncnc2c(OC3CCNC3=O)cc(-c3ccc(F)cc3)cc12)c1cnc(C(F)(F)F)nc1 (stereo partly drawn) [Example 34, 3-((6-(4-fluorophenyl)-4-(((R)-1-(2-(trifluoromethyl)pyrimidin-5-yl)ethyl)amino)quinazolin-8-yl)oxy)pyrrolidin-2-one] | < 316 | < 316 | 316 to 3160

Continued, values first:

Row | IC50 ([1]; Table 2) [nM] | IC50 ([1]; Table 3) [nM] | IC50 [2] [nM] | SMILES
11 | < 316 | < 316 | 316 to 3160 | Cc1ccc(CNc2ncnc3c(OCc4nnc(C5CC5)o4)cc(-c4ccc(F)cc4)cc23)nn1 [Example 62, 8-((5-cyclopropyl-1,3,4-oxadiazol-2-yl)methoxy)-6-(4-fluorophenyl)-N-((6-methylpyridazin-3-yl)methyl)quinazolin-4-amine]
12 | 316 to 3160 | 316 to 3160 | 3160 to 31600 | C[C@@H](Nc1ncnc2c(OCC3(C(=O)O)CCNCC3)cc(-c3ccc(F)cc3)cc12)c1cnc(C(F)(F)F)nc1 [Example 47, (R)-4-(((6-(4-fluorophenyl)-4-((1-(2-(trifluoromethyl)pyrimidin-5-yl)ethyl)amino)quinazolin-8-yl)oxy)methyl)piperidine-4-carboxylic acid hydrochloride]
13 | 316 to 3160 | 316 to 3160 | 3160 to 31600 | COC(=O)N1CCC(Oc2cc(-c3ccc(F)cc3)cc3c(NCc4ccc(C)nn4)ncnc23)C1 (stereo not drawn) [Example 68, Methyl 3-[6-(4-fluorophenyl)-4-[(6-methylpyridazin-3-yl)methylamino]quinazolin-8-yl]oxypyrrolidine-1-carboxylate]
14 | 316 to 3160 | 316 to 3160 | 3160 to 31600 | COC(=O)N1CCC(Oc2cc(-c3ccc(F)cc3)cc3c(NCc4ccc(C)nn4)ncnc23)CC1 [Example 65, Methyl 4-[6-(4-fluorophenyl)-4-[(6-methylpyridazin-3-yl)methylamino]quinazolin-8-yl]oxypiperidine-1-carboxylate]
15 | 316 to 3160 | 316 to 3160 | 3160 to 31600 | COC(=O)C1(NC(=O)COc2cc(-c3ccc(F)cc3)cc3c(N[C@H](C)c4cnc(C(F)(F)F)nc4)ncnc23)CC1 [Example 43, Methyl (R)-1-(2-((6-(4-fluorophenyl)-4-((1-(2-(trifluoromethyl)pyrimidin-5-yl)ethyl)amino)quinazolin-8-yl)oxy)acetamido) cyclopropane-1-carboxylate]
